Source: ChEMBL document CHEMBL5608163, “Structure modification of anoplin for fighting resistant bacteria” (Eur J Med Chem, 2024)
Converted amounts (≈) assume the structure as drawn. Bridge positions count the residues as written; N and C are the ends. Square brackets hold non-standard residues; d marks the D form. Peptide text beside a SMILES is read from it. I, II: the chains in the order shown. * marks the point of attachment. ξ: configuration not given here. Lauroyl = CCCCCCCCCCCC(=O)*; Decanoyl = CCCCCCCCCC(=O)*; Octanoyl = CCCCCCCC(=O)*; Hexanoyl = CCCCCC(=O)*; ξK = NCCCCC(N)C(=O)O; Butyryl = CCCC(=O)*

Experiments:
[1] = test system: Staphylococcus aureus; assay: Antibacterial activity against Staphylococcus aureus ATCC 25923 assessed as reduction in bacterial cell growth incubated for 16 to 24 hrs by CLSI-protocol based Mueller-Hinton Broth micro-dilution method; assay type: functional; settings: time 16-24 hrs
[2] = test system: Bacillus subtilis; assay: Antibacterial activity against Bacillus subtilis ATCC 23857 assessed as reduction in bacterial cell growth incubated for 16 to 24 hrs by CLSI-protocol based Mueller-Hinton Broth micro-dilution method; assay type: functional; settings: time 16-24 hrs
[3] = test system: Escherichia coli; assay: Antibacterial activity against Escherichia coli ATCC 25922 assessed as reduction in bacterial cell growth incubated for 16 to 24 hrs by CLSI-protocol based Mueller-Hinton Broth micro-dilution method; assay type: functional; settings: time 16-24 hrs
[4] = test system: Pseudomonas aeruginosa; assay: Antibacterial activity against Pseudomonas aeruginosa ATCC 27853 assessed as reduction in bacterial cell growth incubated for 16 to 24 hrs by CLSI-protocol based Mueller-Hinton Broth micro-dilution method; assay type: functional; settings: time 16-24 hrs
[5] = test system: Klebsiella pneumoniae; assay: Antibacterial activity against Klebsiella pneumoniae ATCC 700603 assessed as reduction in bacterial cell growth incubated for 16 to 24 hrs by CLSI-protocol based Mueller-Hinton Broth micro-dilution method; assay type: functional; settings: time 16-24 hrs
[6] = test system: Erythrocyte; assay: Hemolytic activity in human erythrocyte incubated for 70 mins by absorbance based assay; assay type: toxicity, cell-based; settings: 1.167 h

Row | Compound | MIC [1] [µM] | MIC [2] [µM] | MIC [3] [µM] | MIC [4] [µM] | MIC [5] [µM] | HC10 [6] [µM]
1 | I: Octanoyl-GLLKRIKTLL[ξK][ξK]-NH2 / II: Octanoyl-GLLKRIKTLL[ξK] / III: Octanoyl-GLLKRIKTLL / IV: Octanoyl-GLLKRIKTLL (amide I:11-IV:C, I:12-II:C, II:11-III:C) | 256 | 256 | 256 | 256 | 256 | 103.4
2 | CCCCCCCCCC(=O)NCC(=O)N[C@@H](CC(C)C)C(=O)N[C@@H](CC(C)C)C(=O)N[C@@H](CCCCN)C(=O)N[C@@H](CCCNC(=N)N)C(=O)N[C@H](C(=O)N[C@@H](CCCCN)C(=O)N[C@H](C(=O)N[C@@H](CC(C)C)C(=O)N[C@@H](CC(C)C)C(=O)NCCCCC(NC(=O)[C@H](CC(C)C)NC(=O)[C@H](CC(C)C)NC(=O)[C@@H](NC(=O)[C@H](CCCCN)NC(=O)[C@@H](NC(=O)[C@H](CCCNC(=N)N)NC(=O)[C@H](CCCCN)NC(=O)[C@H](CC(C)C)NC(=O)[C@H](CC(C)C)NC(=O)CNC(=O)CCCCCCCCC)[C@@H](C)CC)[C@@H](C)O)C(N)=O)[C@@H](C)O)[C@@H](C)CC (some centres undefined) (I: Decanoyl-GLLKRIKTLL[ξK]-NH2 / II: Decanoyl-GLLKRIKTLL; amide I:11-II:C) | 256 (≈ 698 µg/mL) | 256 (≈ 698 µg/mL) | 64 (≈ 175 µg/mL) | 256 (≈ 698 µg/mL) | 128 (≈ 349 µg/mL) | 26.56
3 | I: Butyryl-GLLKRIKTLL[ξK][ξK]-NH2 / II: Butyryl-GLLKRIKTLL[ξK] / III: Butyryl-GLLKRIKTLL / IV: Butyryl-GLLKRIKTLL (amide I:11-IV:C, I:12-II:C, II:11-III:C) | 16 | 16 | 8 | 8 | 32 | 1.06
4 | CCCCCCCCCCCC(=O)NCC(=O)N[C@@H](CC(C)C)C(=O)N[C@@H](CC(C)C)C(=O)N[C@@H](CCCCN)C(=O)N[C@@H](CCCNC(=N)N)C(=O)N[C@H](C(=O)N[C@@H](CCCCN)C(=O)N[C@H](C(=O)N[C@@H](CC(C)C)C(=O)N[C@@H](CC(C)C)C(=O)NCCCCC(NC(=O)[C@H](CC(C)C)NC(=O)[C@H](CC(C)C)NC(=O)[C@@H](NC(=O)[C@H](CCCCN)NC(=O)[C@@H](NC(=O)[C@H](CCCNC(=N)N)NC(=O)[C@H](CCCCN)NC(=O)[C@H](CC(C)C)NC(=O)[C@H](CC(C)C)NC(=O)CNC(=O)CCCCCCCCCCC)[C@@H](C)CC)[C@@H](C)O)C(N)=O)[C@@H](C)O)[C@@H](C)CC (some centres undefined) (I: Lauroyl-GLLKRIKTLL[ξK]-NH2 / II: Lauroyl-GLLKRIKTLL; amide I:11-II:C) | 256 (≈ 712 µg/mL) | 256 (≈ 712 µg/mL) | 128 (≈ 356 µg/mL) | 256 (≈ 712 µg/mL) | 256 (≈ 712 µg/mL) | 15.16
5 | CCCC(=O)NCC(=O)N[C@@H](CC(C)C)C(=O)N[C@@H](CC(C)C)C(=O)N[C@@H](CCCCN)C(=O)N[C@@H](CCCNC(=N)N)C(=O)N[C@H](C(=O)N[C@@H](CCCCN)C(=O)N[C@H](C(=O)N[C@@H](CC(C)C)C(=O)N[C@@H](CC(C)C)C(=O)NCCCCC(NC(=O)[C@H](CC(C)C)NC(=O)[C@H](CC(C)C)NC(=O)[C@@H](NC(=O)[C@H](CCCCN)NC(=O)[C@@H](NC(=O)[C@H](CCCNC(=N)N)NC(=O)[C@H](CCCCN)NC(=O)[C@H](CC(C)C)NC(=O)[C@H](CC(C)C)NC(=O)CNC(=O)CCC)[C@@H](C)CC)[C@@H](C)O)C(N)=O)[C@@H](C)O)[C@@H](C)CC (some centres undefined) (I: Butyryl-GLLKRIKTLL[ξK]-NH2 / II: Butyryl-GLLKRIKTLL; amide I:11-II:C) | 8 (≈ 20.5 µg/mL) | 4 (≈ 10.2 µg/mL) | 4 (≈ 10.2 µg/mL) | 8 (≈ 20.5 µg/mL) | 8 (≈ 20.5 µg/mL) | 27.61
6 | CCCC(=O)NCC(=O)N[C@@H](CC(C)C)C(=O)N[C@@H](CC(C)C)C(=O)N[C@@H](CCCCN)C(=O)N[C@@H](CCCNC(=N)N)C(=O)N[C@H](C(=O)N[C@@H](CCCCN)C(=O)N[C@H](C(=O)N[C@@H](CC(C)C)C(=O)N[C@@H](CC(C)C)C(N)=O)[C@@H](C)O)[C@@H](C)CC (Butyryl-GLLKRIKTLL-NH2) | 256 (≈ 313 µg/mL) | 256 (≈ 313 µg/mL) | 256 (≈ 313 µg/mL) | 64 (≈ 78.3 µg/mL) | 256 (≈ 313 µg/mL) | > 256
7 | CCCCCC(=O)NCC(=O)N[C@@H](CC(C)C)C(=O)N[C@@H](CC(C)C)C(=O)N[C@@H](CCCCN)C(=O)N[C@@H](CCCNC(=N)N)C(=O)N[C@H](C(=O)N[C@@H](CCCCN)C(=O)N[C@H](C(=O)N[C@@H](CC(C)C)C(=O)N[C@@H](CC(C)C)C(=O)NCCCCC(NC(=O)[C@H](CC(C)C)NC(=O)[C@H](CC(C)C)NC(=O)[C@@H](NC(=O)[C@H](CCCCN)NC(=O)[C@@H](NC(=O)[C@H](CCCNC(=N)N)NC(=O)[C@H](CCCCN)NC(=O)[C@H](CC(C)C)NC(=O)[C@H](CC(C)C)NC(=O)CNC(=O)CCCCC)[C@@H](C)CC)[C@@H](C)O)C(N)=O)[C@@H](C)O)[C@@H](C)CC (some centres undefined) (I: Hexanoyl-GLLKRIKTLL[ξK]-NH2 / II: Hexanoyl-GLLKRIKTLL; amide I:11-II:C) | 8 (≈ 20.9 µg/mL) | 8 (≈ 20.9 µg/mL) | 4 (≈ 10.5 µg/mL) | 16 (≈ 41.8 µg/mL) | 8 (≈ 20.9 µg/mL) | 6.08
8 | I: Hexanoyl-GLLKRIKTLL[ξK][ξK]-NH2 / II: Hexanoyl-GLLKRIKTLL[ξK] / III: Hexanoyl-GLLKRIKTLL / IV: Hexanoyl-GLLKRIKTLL (amide I:11-IV:C, I:12-II:C, II:11-III:C) | 32 | 32 | 32 | 32 | 32 | 10.91
9 | CCCCCCCCCC(=O)NCC(=O)N[C@@H](CC(C)C)C(=O)N[C@@H](CC(C)C)C(=O)N[C@@H](CCCCN)C(=O)N[C@@H](CCCNC(=N)N)C(=O)N[C@H](C(=O)N[C@@H](CCCCN)C(=O)N[C@H](C(=O)N[C@@H](CC(C)C)C(=O)N[C@@H](CC(C)C)C(N)=O)[C@@H](C)O)[C@@H](C)CC (Decanoyl-GLLKRIKTLL-NH2) | 8 (≈ 10.5 µg/mL) | 8 (≈ 10.5 µg/mL) | 16 (≈ 20.9 µg/mL) | 8 (≈ 10.5 µg/mL) | 16 (≈ 20.9 µg/mL) | 16.36
10 | CCCCCCCCCCCC(=O)NCC(=O)N[C@@H](CC(C)C)C(=O)N[C@@H](CC(C)C)C(=O)N[C@@H](CCCCN)C(=O)N[C@@H](CCCNC(=N)N)C(=O)N[C@H](C(=O)N[C@@H](CCCCN)C(=O)N[C@H](C(=O)N[C@@H](CC(C)C)C(=O)N[C@@H](CC(C)C)C(N)=O)[C@@H](C)O)[C@@H](C)CC (Lauroyl-GLLKRIKTLL-NH2) | 16 (≈ 21.4 µg/mL) | 16 (≈ 21.4 µg/mL) | 64 (≈ 85.5 µg/mL) | 32 (≈ 42.7 µg/mL) | 128 (≈ 171 µg/mL) | 11.38
11 | I: Lauroyl-GLLKRIKTLL[ξK][ξK]-NH2 / II: Lauroyl-GLLKRIKTLL[ξK] / III: Lauroyl-GLLKRIKTLL / IV: Lauroyl-GLLKRIKTLL (amide I:11-IV:C, I:12-II:C, II:11-III:C) | 256 | 256 | 125 | 256 | 256 | 210.92
12 | CCCCCC(=O)NCC(=O)N[C@@H](CC(C)C)C(=O)N[C@@H](CC(C)C)C(=O)N[C@@H](CCCCN)C(=O)N[C@@H](CCCNC(=N)N)C(=O)N[C@H](C(=O)N[C@@H](CCCCN)C(=O)N[C@H](C(=O)N[C@@H](CC(C)C)C(=O)N[C@@H](CC(C)C)C(N)=O)[C@@H](C)O)[C@@H](C)CC (Hexanoyl-GLLKRIKTLL-NH2) | 64 (≈ 80.1 µg/mL) | 16 (≈ 20 µg/mL) | 128 (≈ 160 µg/mL) | 16 (≈ 20 µg/mL) | 128 (≈ 160 µg/mL) | > 256
13 | I: H-GLLKRIKTLL[ξK][ξK]-NH2 / II: H-GLLKRIKTLL[ξK] / III: H-GLLKRIKTLL / IV: H-GLLKRIKTLL (amide I:11-IV:C, I:12-II:C, II:11-III:C) | 8 | 8 | 8 | 8 | 16 | 1.31
14 | CCCCCCCC(=O)NCC(=O)N[C@@H](CC(C)C)C(=O)N[C@@H](CC(C)C)C(=O)N[C@@H](CCCCN)C(=O)N[C@@H](CCCNC(=N)N)C(=O)N[C@H](C(=O)N[C@@H](CCCCN)C(=O)N[C@H](C(=O)N[C@@H](CC(C)C)C(=O)N[C@@H](CC(C)C)C(N)=O)[C@@H](C)O)[C@@H](C)CC (Octanoyl-GLLKRIKTLL-NH2) | 8 (≈ 10.2 µg/mL) | 8 (≈ 10.2 µg/mL) | 16 (≈ 20.5 µg/mL) | 8 (≈ 10.2 µg/mL) | 16 (≈ 20.5 µg/mL) | 210.63
